# Earlier results in patent US12109304B1, “Oral patch for treating mouth ulcers” (Xiamen LP Pharmaceutical Co., Ltd., priority 2023, dated 2024).
smiles,measurement,setting,value
CCCCNc1ccc(C(=O)OCCN(C)C)cc1.Cl [Tetracaine hydrochloride],Solubility in ethanol / alcohol,ethanol (alcohol),soluble
same,Solubility in water,water,soluble
